Test results reported in the supplement of paper PMC10307832.

Legend:
Test in all cases: relative viability (nuclei count vs DMSO), 5 days (fraction); higher = more cells survive
Trametinib + Navitoclax = compound: CC(=O)Nc1cccc(-n2c(=O)n(C3CC3)c(=O)c3c(Nc4ccc(I)cc4F)n(C)c(=O)c(C)c32)c1 [Trametinib] + CC1(C)CCC(c2ccc(Cl)cc2)=C(CN2CCN(c3ccc(C(=O)NS(=O)(=O)c4ccc(N[C@H](CCN5CCOCC5)CSc5ccccc5)c(S(=O)(=O)C(F)(F)F)c4)cc3)CC2)C1 [Navitoclax] (partner 0.5 µM)
Procedure, shortened: (§1)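 One day after seeding in 1536-well plates, lung cancer cell lines were dosed by pin tool. Dosing was either single-drug or a fixed anchor-drug dose plus five library-drug doses (not always all listed) in √10 steps. After 5 days, nuclei were stained in one fix-and-stain step and counted on 4× images, and relative viability is the nuclei count of treated wells over that of vehicle wells, given as the median of duplicate plates.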

Trametinib + Luminespib = compound: CC(=O)Nc1cccc(-n2c(=O)n(C3CC3)c(=O)c3c(Nc4ccc(I)cc4F)n(C)c(=O)c(C)c32)c1 [Trametinib] + CCNC(=O)c1noc(-c2cc(C(C)C)c(O)cc2O)c1-c1ccc(CN2CCOCC2)cc1 [Luminespib] (partner 0.01 µM)
Procedure, shortened: as §1

Trametinib + Decitabine = compound: CC(=O)Nc1cccc(-n2c(=O)n(C3CC3)c(=O)c3c(Nc4ccc(I)cc4F)n(C)c(=O)c(C)c32)c1 [Trametinib] + Nc1ncn([C@H]2C[C@H](O)[C@@H](CO)O2)c(=O)n1 [Decitabine] (partner 2 µM)
Procedure, shortened: as §1

[1] = compound: CN1C=C(C2=CC=CC=C21)/C=C\3/C4=C(C=CC=N4)NC3=O + Cc1cc(Nc2cc(N3CCN(C)CC3)nc(Sc3ccc(NC(=O)C4CC4)cc3)n2)n[nH]1 [Tozasertib] (partner 0.1 µM)
Procedure, shortened: as §1

Cell Line	relative viability (Trametinib + Navitoclax; first compound 0.0025 µM)	relative viability (Trametinib + Navitoclax; first compound 0.007906 µM)	relative viability (Trametinib + Navitoclax; first compound 0.025 µM)	relative viability (Trametinib + Navitoclax; first compound 0.07906 µM)	relative viability (Trametinib + Navitoclax; first compound 0.25 µM)	relative viability (Trametinib + Luminespib; first compound 0.0025 µM)	relative viability (Trametinib + Luminespib; first compound 0.007906 µM)	relative viability (Trametinib + Luminespib; first compound 0.025 µM)	relative viability (Trametinib + Luminespib; first compound 0.07906 µM)	relative viability (Trametinib + Luminespib; first compound 0.25 µM)	relative viability (Trametinib + Decitabine; first compound 0.0025 µM)	relative viability (Trametinib + Decitabine; first compound 0.007906 µM)	relative viability (Trametinib + Decitabine; first compound 0.025 µM)	relative viability (Trametinib + Decitabine; first compound 0.07906 µM)	relative viability (Trametinib + Decitabine; first compound 0.25 µM)	relative viability ([1]; first compound 0.02 µM)	relative viability ([1]; first compound 0.06325 µM)	relative viability ([1]; first compound 0.2 µM)	relative viability ([1]; first compound 0.6325 µM)	relative viability ([1]; first compound 2 µM)
201T	1.17	1.1	1.13	1.08	1.09	1.08	0.866	0.856	0.852	0.8	0.854	0.743	0.765	0.782	0.749	1	0.96	0.947	0.897	0.781
A549	1.12	0.81	0.464	0.281	0.0636						0.224	0.245	0.209	0.168	0.0957					
A-427	0.989	0.799	0.489	0.545	0.296	0.805	0.871	0.691	0.661	0.297	0.522	0.585	0.541	0.525	0.418	0.203	0.207		0.201	0.166
ABC-1						0.665	0.819	0.446	0.307	0.439	0.884	1.16	1.02	1.24	0.837	0.173	0.18	0.172	0.173	0.183
CAL-12T	1.04	0.831	0.554	0.738	0.492	0.725	0.29	0.344	0.309	0.239						0.343	0.255	0.247	0.324	0.206
Calu-6	0.601	0.295	0.177	0.129	0.127															
EBC-1	0.274	0.218	0.157	0.141	0.179															
HCC-78	0.728	0.591	0.558	0.624	0.42						0.81	0.662	0.621	0.683	0.66	0.386	0.424		0.271	0.426
HCC-366	0.977	0.926	0.7	0.531	0.275						0.29	0.307	0.276	0.273	0.206	0.09	0.109	0.0765	0.0587	0.0526
IA-LM	0.584	0.383	0.179	0.1	0.0292															
LCLC-103H						0.769	0.761	0.735	0.767	0.668	0.754	0.68	0.692	0.689	0.596	0.313	0.506	0.475	0.511	0.536
NCI-H358						0.264	0.18	0.132	0.107	0.11	0.2	0.191	0.142	0.209	0.155	0.0895	0.11	0.109	0.0977	0.117
NCI-H522						1.04	0.917	1	0.844	0.574	0.783	0.602	0.678	0.64	0.672	0.562	0.575	0.518	0.283	0.556
NCI-H650						0.862	0.828	0.659	0.578	0.375	0.346	0.294	0.345	0.301	0.261	0.643	0.674		0.829	0.757
NCI-H661						0.914	0.917	0.888	0.702	0.641	0.522	0.537	0.484	0.412	0.431	0.344	0.349	0.365	0.4	0.36
NCI-H1299	1.04	1.01	0.896	0.887	0.78															
NCI-H1563						0.515	0.481	0.505	0.476	0.569										
NCI-H1623						0.593	0.406	0.315	0.287	0.344						0.384	0.431	0.358	0.384	0.497
NCI-H1648											0.508	0.44	0.554	0.517	0.371		0.435	0.435	0.387	0.372
NCI-H1703	1.15	1.15	1.06	0.972	0.987															
NCI-H1792	0.646	0.596	0.417	0.392	0.332	0.399	0.348	0.294	0.286	0.238	0.436	0.443	0.318	0.364	0.291					
NCI-H2228	0.782	0.803	0.706	0.626	0.548	0.15	0.0886	0.134	0.0863	0.112						0.15	0.223			0.192
NCI-H2342						0.728	0.582		0.587	0.604	0.775	0.69	0.646	0.673	0.637	0.492	0.437	0.556	0.438	0.505
SW 900						0.189	0.167	0.15	0.169	0.17	0.396	0.335	0.388	0.491	0.39	0.468	0.531		0.452	0.389
